From ChEMBL document CHEMBL4152231, “Identification of novel 2-benzyl-1-indanone analogs as interleukin-5 inhibitors” (Eur J Med Chem, 2018) come the findings set out here.

Each structure is given as a SMILES string.

The assay addresses T1, Interleukin-5 (Mus musculus) (UniProt P04401).
T1 sequence (whole entry): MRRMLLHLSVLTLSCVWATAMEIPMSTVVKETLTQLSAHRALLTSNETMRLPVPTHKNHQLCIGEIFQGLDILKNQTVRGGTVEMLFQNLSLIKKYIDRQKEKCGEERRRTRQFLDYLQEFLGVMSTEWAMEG
The experiment in a line: Inhibition of IL-5 in mouse Y16 cells assessed as reduction in cell proliferation at 30 uM after 48 hrs by WST-1 assay relative to control. Format: cell-based.

The inhibition is the relative decrease from the control value, in per cent.

For the molecule `O=C1c2c(cccc2OCCC2CCCCC2)CC1Cc1ccc(O)cc1` (stereo unspecified), the inhibition came out at 78%. The result for `O=C1c2c(cccc2OCC2CCCCC2)CC1Cc1ccccc1O` (stereo unspecified) reads 13%; that for `COCOc1ccc(CC2Cc3cccc(OCC4CCCCC4)c3C2=O)cc1` (stereo unspecified), 90%; that for `COc1ccc(COc2cccc3c2C(=O)/C(=C/c2ccc(Cl)cc2)C3)cc1`, 29%. As for `COc1ccc(COc2cccc3c2C(=O)/C(=C/c2ccc(C)cc2)C3)cc1`, the figure is 17%; as for `O=c1c(Cc2ccc(O)cc2)coc2cccc(OCC3CCCCC3)c12`, 96%; as for `COc1ccc(/C=C2\Cc3cccc(O)c3C2=O)cc1`, 25%. `O=C1c2c(O)cccc2CC1Cc1ccc(O)cc1` (stereo unspecified): the inhibition came to 30%. For the molecule `COc1ccc(CC2Cc3cccc(OCC4CCCCC4)c3C2=O)cc1` (stereo unspecified), the inhibition is 44%. Consider `Cc1ccc(CC2Cc3cccc(OCC4CCCCC4)c3C2=O)cc1` (stereo unspecified), for which the inhibition was found to be 68%.

For the molecule `O=C1c2c(cccc2OCCc2ccccc2)CC1Cc1ccccc1O` (stereo unspecified), the inhibition is 47%. The result for `COCOc1ccc(/C=C2\Cc3cccc(OCC4CCCCC4)c3C2=O)cc1` reads 23.5%; that for `O=C1c2c(cccc2OCc2ccccc2)CC1Cc1ccc(O)cc1` (stereo unspecified), 70%; that for `O=C1c2c(cccc2OCC2CCCCC2)CC1Cc1cccc(O)c1` (stereo unspecified), 95%.

As to `O=C1c2c(cccc2OCC2CCCCC2)CC1Cc1ccc(Cl)cc1` (stereo unspecified), the inhibition came out at 70%. The result for `O=C1c2c(cccc2OCC2CCCCC2)CC1Cc1ccc(O)cc1` (stereo unspecified) reads 100%. Regarding `O=C1/C(=C/c2ccc(O)cc2)Cc2cccc(OCc3ccc([N+](=O)[O-])cc3)c21`, the inhibition amounted to 32%. The result for `O=C1/C(=C/c2ccccc2)Cc2cccc(O)c21` reads 40%.

For `O=C1c2c(cccc2OCCc2ccccc2)CC1Cc1ccc(O)cc1` (stereo unspecified), the inhibition was 59%. The result for `O=C1/C(=C/c2ccc(O)cc2)Cc2cccc(OCC3CCCCC3)c21` reads 47%; that for `O=C1c2c(cccc2OCCc2ccccc2)CC1Cc1cccc(O)c1` (stereo unspecified), 60.5%. As for `COc1ccc(COc2cccc3c2C(=O)/C(=C/c2ccc(O)cc2)C3)cc1`, the figure is 0%; as for `O=C1/C(=C/c2ccc(O)cc2)Cc2cccc(O)c21`, 35%.

Regarding `COc1ccc(/C=C2\Cc3cccc(OCc4ccc(OC)cc4)c3C2=O)cc1`, the inhibition worked out at 6%. As for `COc1ccc(COc2cccc3c2C(=O)/C(=C/c2ccccc2)C3)cc1`, the figure is 5%; as for `COc1ccc(/C=C2\Cc3cccc(OCC4CCCCC4)c3C2=O)cc1`, 5.6%.
